Measurements as given in patent publication US5158939A, “Method of stimulating the immune systems of animals and compositions useful therefor” (priority 1990, dated 1992).

Tested on: endotoxin
Assay: Protection of mice against lethal endotoxin challenge
Assay type: in vivo
Conditions: compared with lipid X as reported in the literature
Method: The lethal dose of E. coli endotoxin was determined both for the intravenous and for the intraperitoneal challenge. […] (It is important to standardize each lot of endotoxin with each lot of mice.) To determine the approximate dose of lipid A derivative needed to protect against a lethal challenge of endotoxin, mice are pretreated with the lipid A derivative intraperitoneally 2 hours before challenge with 1500 μg of endotoxin, which is 3 times the LD100 dose. Pretreatment of mice with the lipid A derivative appeared to prolong the time to death.

Compound: CCCCCCC=CCCCCCC(=O)OC(CCCCCCCCCCC)CC(=O)NC1C(OCC2OC(OP(=O)(O)O)C(NC(=O)CC(=O)CCCCCCCCCCC)C(OC(=O)CC(O)CCCCCCC)C2O)OC(CO)C(OP(=O)(O)O)C1OC(=O)CC(O)CCCCCCC (stereo not shown) [DPLA]
- protection of mice against a lethal dose of endotoxin: more effective than lipid X
